Source: US4829069A, “4-Thioquinazoline derivatives as antiulcer agents” (Nisshin Flour Milling Co., Ltd., priority 1987, dated 1989)

Key:
[1] = test system: indomethacin induced ulcer; assay: Antiulcer activity: suppression of indomethacin induced ulcer; type: in vivo, mouse (ddy series male mice); settings: 100 mg/kg to the stomach 30 minutes before 20 mg/kg indomethacin p.o.; mean ulcer index vs control group, 4 hours after indomethacin
Experimental: The antiulcer activity of the compounds of this invention was determined by the following method. Four-week-old ddy series male mice were used as the test animals after they were fasted for 24 hours. Each test compound suspended in a 1% gum arabic solution was administered to the stomach of each mouse at a dose of 100 mg/kg, and then, after 30 minutes, 20 mg/kg of indomethacin was administered orally. Four hours after the administration of indomethacin, the stomach of mouse was extirpated and the length of ulcers was measured. Then, the ulcer index was determined by the total sum of the scores as calculated in Table 1. The mean ulcer index of each group was calculated and the suppression rate against the control group in terms of difference in the mean ulcer index was determined.

[2] = background; cited from earlier work
[3] = Reversion test
[4] = Toxicity, LD50 (P.O.); settings: in vivo, po

COc1cc(CSc2ncnc3ccccc23)ncc1C [4-[(4-Methoxy-5-methylpyridin-2-yl)methylthio]-quinazoline]
Suppression rate of indomethacin induced ulcer, 100 mg/kg, p.o. [1]: 81

c1ccc2c(SCc3ccncc3)ncnc2c1 [4-(4-Pyridylmethylthio)-quinazoline]
Suppression rate of indomethacin induced ulcer, 100 mg/kg, p.o. [1]: 92

CN/C(=N/CCSCc1nc[nH]c1C)NC#N [Cimetidine, reference compound]
Suppression rate of indomethacin induced ulcer, 100 mg/kg, p.o. [1]: 40
side effects [2]: gynecomatism

Cc1ccnc(CSc2ncnc3ccccc23)c1 [4-[(4-Methylpyridin-2-yl)methylthio]-quinazoline]
Suppression rate of indomethacin induced ulcer, 100 mg/kg, p.o. [1]: 70

c1ccc2nc(CSc3ncnc4ccccc34)ccc2c1 [4-(2-Quinolylmethylthio)-quinazoline]
Suppression rate of indomethacin induced ulcer, 100 mg/kg, p.o. [1]: 70

CCN(CC)CCSc1ncnc2ccccc12 [4-[2-(Diethylamino)ethylthio]-quinazoline]
Suppression rate of indomethacin induced ulcer, 100 mg/kg, p.o. [1]: 49

c1ccc(CSc2ncnc3ccccc23)nc1 [4-(2-Pyridylmethylthio)-quinazoline]
Suppression rate of indomethacin induced ulcer, 100 mg/kg, p.o. [1]: 94
reversion test [3]: negative
LD50 [4]: > 1000 mg/kg
